Entries after “also recorded” stand apart in the source; their conditions may differ. Like-named read-outs stand apart in the source and are kept apart here.
Assays:
[1] = biological target: T1, D206A HtxB (Stutzerimonas stutzeri, UniProt O69061, D238A)
[2] = biological target: T1, D206A HtxB; conditions: 10 mM phosphite, pH range 4-9
[3] = biological target: HtxB; conditions: cited from earlier work
[4] = Fig. 1; no reference given; cited from earlier work
[5] = biological target: T2, WT HtxB (Stutzerimonas stutzeri, UniProt O69061); conditions: 10 mM phosphite, 1 mM HtxB
T2 sequence (O69061 34-298): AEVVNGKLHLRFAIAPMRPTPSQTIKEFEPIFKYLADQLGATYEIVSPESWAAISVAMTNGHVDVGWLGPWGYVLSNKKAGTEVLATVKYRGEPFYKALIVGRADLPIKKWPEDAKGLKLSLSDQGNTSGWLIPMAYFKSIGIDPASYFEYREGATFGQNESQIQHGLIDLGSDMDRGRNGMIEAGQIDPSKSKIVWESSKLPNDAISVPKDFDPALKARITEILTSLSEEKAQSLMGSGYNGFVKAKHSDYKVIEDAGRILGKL

[6] = biological target: T1, D206A HtxB; assay: biochemical
[7] = biological target: D206N HtxB (Stutzerimonas stutzeri, UniProt O69061, D238N); assay: biochemical; type: binding, Pseudomonas stutzeri
Sequence of D206N HtxB (O69061 34-298 D238N limits assumed): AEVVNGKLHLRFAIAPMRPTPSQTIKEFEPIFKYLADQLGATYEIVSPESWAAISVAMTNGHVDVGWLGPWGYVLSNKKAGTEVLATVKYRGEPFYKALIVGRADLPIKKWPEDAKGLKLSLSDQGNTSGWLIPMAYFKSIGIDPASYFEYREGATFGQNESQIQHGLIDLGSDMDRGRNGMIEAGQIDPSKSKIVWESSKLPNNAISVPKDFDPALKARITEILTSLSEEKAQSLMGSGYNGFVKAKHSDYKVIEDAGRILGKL

[8] = biological target: T2, WT HtxB; conditions: pH 5
[9] = biological target: T2, WT HtxB; assay: biochemical

T1 sequence (O69061 34-298 D238A): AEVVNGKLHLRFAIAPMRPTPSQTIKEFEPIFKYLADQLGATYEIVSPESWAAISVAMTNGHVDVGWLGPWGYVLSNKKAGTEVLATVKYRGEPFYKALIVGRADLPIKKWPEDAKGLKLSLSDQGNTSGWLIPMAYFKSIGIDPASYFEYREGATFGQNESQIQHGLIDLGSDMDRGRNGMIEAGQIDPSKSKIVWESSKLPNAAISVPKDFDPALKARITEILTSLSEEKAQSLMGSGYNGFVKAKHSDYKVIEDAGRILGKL

Compound | binding (in words) ([1]; pH 7.4) | Kd ([1]; read-out: Calculated Kd, pH 5) [mM] | linebroadening of the 31P peak (in words) [2] | Kd ([3]; pH 7.4) [mM] | pKa2 [4] | pH of maximal line broadening ([5]; pH 9-4) | linebroadening of the 31P peak (in words) ([5]; reducing pH from 9 to 4) | Kd [6] [mM] | Kd [7] [mM] | Kd ([7]; read-out: Calculated Kd, pH 5) [mM] | fold lower affinity than hypophosphite at the same pH [8] | Kd [9] [mM] | binding (in words) [3] | ligand concentration at which protein was not saturated in full titration ([7]; 50 mM HEPES pH 7.4) [mM] | binding (in words) ([7]; 50 mM HEPES pH 7.4, 100 mM phosphate)
O=[PH](O)O [phosphite] | No evidence of D206A HtxB binding | > 100 | did not show significant linebroadening | > 10 | 1.3 | 6 | significant linebroadening | > 100 | > 100 | > 100 | ca. 1000 × | 1.74 |  |  | 
phosphate |  |  |  |  |  |  |  |  |  |  |  |  | does not bind | > 100 | weakly; also recorded: incredibly weak

Source: publication PMC6629693 (Scientific Reports, 2019)
